This is an account of results in patent US10759826B2, “15β-substituted estrone derivatives as selective inhibitors of 17β-hydroxysteroid-dehydrogenases, method of preparation and use thereof” (USTAV ORGANICKE CHEMIE A BIOCHEMIE AV CR, V.V.I., priority 2016, dated 2020).

Where “and” joins values, the source holds several entries; their conditions need not be identical. Identical values can stand only once. Entries after “also recorded” stand apart in the source; their conditions may differ. Where only a bound is given, the exact number is not on record here.

One series concerns T47D cells. As to the kind of experiment: E1 induced proliferation of T47D cells, 7 days, cell count. In kind it is cell-based, human. The settings on record: FIG. 1.
The next series deals with CEM. Put plainly: MTT cytotoxicity assay, CEM. In kind it is cell-based. Conditions: Homo sapiens, CCRF-CEM. A digest of the protocol: (§1)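 Antitumor activity of test compounds measured in vitro by MTT cytotoxicity assay against tumor lines and non-tumor fibroblast lines (MRC5, BJ), HCT116 colon cancer with mutant p53 (HCT116p53−/−), and U2OS human osteosarcoma.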
The test system of a further series is CEM-DNR-bulk. Put plainly: MTT cytotoxicity assay, CEM-DNR-bulk. In kind it is cell-based. In a few lines:
as §1

In the next series the test system is K562. As to the kind of experiment: MTT cytotoxicity assay, K562. In kind it is cell-based. Conditions: Homo sapiens. In a few lines: as §1
In another series the test system is K562-Tax. As to the kind of experiment: MTT cytotoxicity assay, K562-Tax. In kind it is cell-based. Conditions: Homo sapiens. A digest of the protocol: as §1
A further series deals with A549. As to the kind of experiment: MTT cytotoxicity assay, A549. In kind it is cell-based. The settings on record: Homo sapiens. A digest of the protocol:
as §1

The test system of the next series is HCT116p53 wt. Put plainly: MTT cytotoxicity assay, HCT116p53 wt. In kind it is cell-based. Conditions: Homo sapiens. A digest of the protocol: as §1
The next series has as its system HCT116p53-/-. Put plainly: MTT cytotoxicity assay, HCT116p53-/-. In kind it is cell-based. The settings on record: Homo sapiens. A digest of the protocol:
as §1

Another series concerns U2OS. As to the kind of experiment: MTT cytotoxicity assay, U2OS. In kind it is cell-based. Conditions: Homo sapiens. In a few lines: as §1
The next series has as its system BJ. As to the kind of experiment: MTT cytotoxicity assay, BJ fibroblasts. In kind it is cell-based. Conditions: Homo sapiens, non-tumor fibroblasts. A digest of the protocol:
as §1

The next series relates to MRCS. As to the kind of experiment: MTT cytotoxicity assay, MRC5 fibroblasts. In kind it is cell-based. Conditions: Homo sapiens, Fibroblast, non-tumor fibroblasts. In a few lines: as §1
The subject of a further series is 17βHSD. Put plainly: Inhibition of 17βHSD in vivo, E2 in plasma of mice. Details: species or system mice (NMRI). Conditions: 20 mg/kg daily, orally; for E2 in plasma, individual mice: 20 mg/kg.
Another series concerns embryo. As to the kind of experiment: Toxicity in the CAM model, dead and surviving embryos. In kind it is in vivo, White Leghorn eggs. Conditions: 50 μmol·l^−1, after 6 days of treatment, FIG. 2C. The protocol:
The toxicity after 6 days of the treatment was characterized by the number of dead embryos, eventual visible macroscopic abnormalities were evaluated as well.

For series [1], the target named is T1, human 17βHSD1 (Homo sapiens, UniProt P14061).
T1 sequence (P14061 1-328): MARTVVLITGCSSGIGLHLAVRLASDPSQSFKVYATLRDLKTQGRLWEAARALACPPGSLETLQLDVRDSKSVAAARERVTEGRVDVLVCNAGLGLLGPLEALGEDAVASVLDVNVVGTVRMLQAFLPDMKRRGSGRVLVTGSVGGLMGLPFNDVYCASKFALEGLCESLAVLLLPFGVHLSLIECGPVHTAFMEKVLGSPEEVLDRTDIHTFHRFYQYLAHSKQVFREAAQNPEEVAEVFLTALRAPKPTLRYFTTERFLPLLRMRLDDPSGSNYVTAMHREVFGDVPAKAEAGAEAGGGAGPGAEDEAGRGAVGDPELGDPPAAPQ
Put plainly: 17βHSD inhibition in CHO cells transfected with human 17βHSD1, E1 in supernatant. In kind it is cell-based. Also noted: expressed in transfected cells. Conditions: 10 μmol·l^−1. The protocol:
(§2) For this experiment, non-cytotoxic concentrations of estrone derivative (10 μmol·l^−1) were used. E1 levels were determined by an immuno-enzymatic assay.

Series [2] has as its target T1, human 17βHSD1. As to the kind of experiment: 17βHSD inhibition in MCF-7 cells transfected with human 17βHSD1, E1 in supernatant. In kind it is cell-based. Also noted: expressed in transfected cells; host or cells: MCF-7. The settings on record: 10 μmol·l^−1. The protocol:
as §2

Text for T47D cells: Two days prior to testing of compounds, growth medium was changed to medium without phenol red, supplemented with 2 mmol^·l^−1 Glutamax and 4% FBS depleted of lipophilic components (including the endogenous estrogenic substances) (Hyclone, GE Healthcare Life Sciences, USA). Two days after the medium replacement, the cells were harvested, counted and resuspended in a medium. Cells were dispensed with liquid dispenser Multidrop (Thermo Fisher Scientific, Waltham, USA), to the cell culture treated, 12-well plates (Corning Inc., NY, USA) at 100 000 cells/well in 1 mL of total media volume. Compounds diluted in the medium were added 24 h later and cells were incubated for 7 more days with or without 1 μmol^·l^−1 E1. Growth medium was changed during the experiment on day 3, and freshly diluted compounds were added to cells again. After 7 days of cell cultivation with compounds, cells were harvested and counted. Cell number was normalized and 100% was attributed to cells cultivated in the presence of 1 μmol^·l^−1 E1 and 0% to the cells cultivated without any added compound.

For `COc1ccc(CC[C@@H]2CC(=O)[C@@]3(C)CC[C@@H]4c5ccc(O)cc5CC[C@H]4[C@H]23)cc1` [Compound 9, 3-Hydroxy-15β-(4-methoxyphenethyl)-estra-1,3,5 (10)-trien-17-one], in the series on T47D cells (1 μmol·l^−1, without E1, 7 days), the “effect on T47D proliferation, compound alone” value is recorded as “weakly pro-proliferative”. For the same molecule, in the series on T47D cells (incubated together with 0.1 nmol·l^−1 E1, 7 days), the “effect on E1-induced proliferation of T47D cells” value is “reverses the pro-proliferative activity of E1; also recorded: blocks E1-induced proliferation”. Moreover, the IC50 was 21.4 µM in the series on CEM; 22.1 µM in the series with CEM-DNR-bulk; 27.7 µM with K562; 9.12 µM in the series on K562-Tax; 41 µM with A549; 29.4 µM with HCT116p53 wt. Further, the IC50 with HCT116p53-/- is 35.7 µM; in the series with U2OS it was 45.3 µM; in the series on BJ it was over 50 µM; in the series with MRCS, over 50 µM. The “E2 in plasma, mean value ± σ” value in the series on 17βHSD (7 days) stood at 5693 ± 1034 pg/mL; in the series with 17βHSD (14 days) it was 3874 ± 1253 pg/mL. Also, the “E2 in plasma, individual mice” value was 4927 pg/mL and 4357 pg/mL and 6020 pg/mL and 7379 pg/mL and 5857 pg/mL and 5617 pg/mL in the series on 17βHSD (7 days); 6020 pg/mL and 2668 pg/mL and 2657 pg/mL and 3566 pg/mL and 4312 pg/mL and 4025 pg/mL in the series with 17βHSD (14 days). Also, the “toxicity, dead/alive eggs” value with embryo is on record as “No specific toxicity”. Besides, the “E1 in supernatant, CHO” value on human 17βHSD1 [1] (8 hr.) was 1171 pg/mL; on human 17βHSD1 [1] (24 hr.) it was 739 pg/mL. Besides, the “E1 in supernatant, MCF-7” value on human 17βHSD1 [2] (8 hr.) came out at 1300 pg/mL; at human 17βHSD1 [2] (24 hr.) it was 1182 pg/mL.
